Measured values published in PubChem BioAssay (NCI).
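1) Cells in 96-well plates. 2) Compound, 48 h, 5 concentrations. 3) Linear interpolation between surrounding doses. 4) Unreached endpoint = highest concentration. At the TGI there is no net growth.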

Columns and labels:
Assay in all cases: DTP human tumour cell line panel, 48 h
[1] = system: 786-0 renal
[2] = system: A549 NSCLC
[3] = system: ACHN renal
[4] = system: BT-549 breast
[5] = system: CAKI-1 renal
[6] = system: CCRF-CEM leukemia
[7] = system: COLO 205 colon
[8] = system: DU-145 prostate
[9] = system: EKVX NSCLC
[10] = system: HCC-2998 colon
[11] = system: HCT-116 colon
[12] = system: HCT-15 colon
[13] = system: HL-60(TB) leukemia
[14] = system: HOP-62 NSCLC
[15] = system: HOP-92 NSCLC
[16] = system: HS 578T breast
[17] = system: HT29 colon
[18] = system: IGROV1 ovarian
[19] = system: K-562 leukemia
[20] = system: KM12 colon
[21] = system: LOX IMVI melanoma
[22] = system: M14 melanoma
[23] = system: MALME-3M melanoma
[24] = system: MCF7 breast
[25] = system: MDA-MB-231 breast
[26] = system: MDA-MB-435
[27] = system: MDA-N
[28] = system: MOLT-4 leukemia
[29] = system: NCI-H226 lung
[30] = system: NCI-H23 lung
[31] = system: NCI-H460 lung
[32] = system: NCI-H522 lung
[33] = system: NCI/ADR-RES ovarian
[34] = system: OVCAR-3 ovarian
[35] = system: OVCAR-4 ovarian
[36] = system: OVCAR-5 ovarian
[37] = system: OVCAR-8 ovarian
[38] = system: PC-3 prostate
[39] = system: RPMI-8226 leukemia
[40] = system: RXF 393 renal
[41] = system: SF-268 CNS
[42] = system: SF-295 CNS
[43] = system: SF-539 CNS
[44] = system: SK-MEL-2 melanoma
[45] = system: SK-MEL-5 melanoma
[46] = system: SK-OV-3 ovarian
[47] = system: SN12C renal
[48] = system: SNB-19 CNS
[49] = system: SNB-75 CNS
[50] = system: SR leukemia
[51] = system: SW-620 colon
[52] = system: T-47D breast
[53] = system: TK-10 renal
[54] = system: U251 CNS
[55] = system: UACC-257 melanoma
[56] = system: UACC-62 melanoma
[57] = system: UO-31 renal
[58] = system: SK-MEL-28 melanoma

## O=C1NN=C2C=C(c3ccc(Cl)cc3)CC(c3cccc(Br)c3)C12 (stereo not drawn)
[1]
  TGI: > 100 µM
[2]
  TGI: > 100 µM
[3]
  TGI: > 100 µM
[4]
  TGI: > 100 µM
[5]
  TGI: > 100 µM
[6]
  TGI: 56.5 µM
[7]
  TGI: > 100 µM
[8]
  TGI: > 100 µM
[9]
  TGI: > 100 µM
[10]
  TGI: > 100 µM
[11]
  TGI: > 100 µM
[12]
  TGI: 61.7 µM
[13]
  TGI: > 100 µM
[14]
  TGI: > 100 µM
[15]
  TGI: 31.3 µM
[16]
  TGI: 68.1 µM
[17]
  TGI: > 100 µM
[18]
  TGI: > 100 µM
[19]
  TGI: > 100 µM
[20]
  TGI: > 100 µM
[21]
  TGI: > 100 µM
[22]
  TGI: > 100 µM
[23]
  TGI: > 100 µM
[24]
  TGI: > 100 µM
[25]
  TGI: > 100 µM
[26]
  TGI: > 100 µM
[27]
  TGI: > 100 µM
[28]
  TGI: > 100 µM
[29]
  TGI: > 100 µM
[30]
  TGI: > 100 µM
[31]
  TGI: > 100 µM
[32]
  TGI: > 100 µM
[33]
  TGI: > 100 µM
[34]
  TGI: > 100 µM
[35]
  TGI: > 100 µM
[36]
  TGI: > 100 µM
[37]
  TGI: > 100 µM
[38]
  TGI: > 100 µM
[39]
  TGI: > 100 µM
[40]
  TGI: > 100 µM
[41]
  TGI: > 100 µM
[42]
  TGI: > 100 µM
[43]
  TGI: > 100 µM
[44]
  TGI: > 100 µM
[45]
  TGI: > 100 µM
[46]
  TGI: > 100 µM
[47]
  TGI: > 100 µM
[48]
  TGI: 57.7 µM
[49]
  TGI: > 100 µM
[50]
  TGI: > 100 µM
[51]
  TGI: > 100 µM
[52]
  TGI: > 100 µM
[53]
  TGI: > 100 µM
[54]
  TGI: > 100 µM
[55]
  TGI: 67 µM
[56]
  TGI: > 100 µM
[57]
  TGI: > 100 µM

## Cc1nn(C(=O)c2ccccc2O)c2c1C(c1ccccc1O)SC(N)=N2 (stereo not drawn)
[1]
  TGI: > 10 µM
[2]
  TGI: > 10 µM
[3]
  TGI: > 10 µM
[4]
  TGI: > 10 µM
[5]
  TGI: > 10 µM
[6]
  TGI: 9.01 µM
[7]
  TGI: > 10 µM
[8]
  TGI: > 10 µM
[9]
  TGI: > 10 µM
[10]
  TGI: > 10 µM
[11]
  TGI: > 10 µM
[12]
  TGI: > 10 µM
[13]
  TGI: 5.02 µM
[14]
  TGI: > 10 µM
[15]
  TGI: > 10 µM
[16]
  TGI: > 10 µM
[17]
  TGI: > 10 µM
[18]
  TGI: > 10 µM
[19]
  TGI: > 10 µM
[20]
  TGI: > 10 µM
[21]
  TGI: > 10 µM
[22]
  TGI: > 10 µM
[23]
  TGI: > 10 µM
[24]
  TGI: > 10 µM
[25]
  TGI: > 10 µM
[26]
  TGI: > 10 µM
[27]
  TGI: > 10 µM
[28]
  TGI: > 10 µM
[29]
  TGI: 8.96 µM
[30]
  TGI: > 10 µM
[31]
  TGI: > 10 µM
[32]
  TGI: > 10 µM
[33]
  TGI: > 10 µM
[34]
  TGI: > 10 µM
[35]
  TGI: > 10 µM
[36]
  TGI: > 10 µM
[37]
  TGI: > 10 µM
[38]
  TGI: > 10 µM
[39]
  TGI: 8.19 µM
[40]
  TGI: > 10 µM
[41]
  TGI: > 10 µM
[42]
  TGI: > 10 µM
[43]
  TGI: 3.53 µM
[44]
  TGI: > 10 µM
[58]
  TGI: > 10 µM
[45]
  TGI: > 10 µM
[46]
  TGI: > 10 µM
[47]
  TGI: > 10 µM
[49]
  TGI: > 10 µM
[50]
  TGI: 5.4 µM
[51]
  TGI: > 10 µM
[52]
  TGI: > 10 µM
[53]
  TGI: > 10 µM
[54]
  TGI: > 10 µM
[55]
  TGI: > 10 µM
[56]
  TGI: > 10 µM
